Source: patent US20220184222A1, “BICYCLE TOXIN CONJUGATES AND USES THEREOF” (BicycleTx Limited, priority 2019, published 2022)
Starred links: 1 amine or outer side, 2 acyl side, 3 side chain; linkers in the order of their positions; H or OH if unused. Non-standard residues stand in square brackets, D forms with d. Residues, ends and D or L forms follow the SMILES beside them. *: point of attachment. Dolaproine = CO[C@@H]([C@@H]1CCCN1)[C@@H](C)C(=O)O; Dil = CC[C@H](C)[C@H](NC)[C@@H](CC(=O)O)OC; PABC = O=C(OCc1ccc(N[*:1])cc1)[*:2]; X1 = O=C(CCCC(=O)*)ON1C(=O)CCC1=O; X2 = C[C@@H](N*)[C@@H](O)c1ccccc1; Cit = NC(=O)NCCC[C@H](N)C(=O)O; NMeV = CN[C@H](C(=O)O)C(C)C

Tests used:
[1] = tested on: PC-3 xenograft; assay: In vivo efficacy in PC-3 xenograft, male Balb/c nude mice (Example 3); design: species or system Mus Musculus
Procedure: The objective of the research is to evaluate the in vivo anti-tumor efficacy of test articles in treatment of PC-3 xenograft in Balb/c nude mice.
The tumor cells were maintained in F-12K medium supplemented with 10% heat inactivated fetal bovine serum at 37° C. in an atmosphere of 5% CO2 in air. The tumor cells were routinely subcultured twice weekly. The cells growing in an exponential growth phase were harvested and counted for tumor inoculation.
Each mouse was inoculated subcutaneously at the right flank with PC-3 tumor cells (10×10^6) in 0.2 ml of PBS for tumor development. 52 animals were randomized when the average tumor volume reached 454 mm^3. The test article administration and the animal numbers in each group were shown in the experimental design table.
The major endpoint was to see if the tumor growth could be delayed or mice could be cured. Tumor volume was measured three times weekly in two dimensions using a caliper, and the volume was expressed in mm3 using the formula: V=0.5 a×b^2 where a and b are the long and short diameters of the tumor, respectively. The tumor size was then used for calculations of T/C value. The T/C value (in percent) is an indication of antitumor effectiveness; T and C are the mean volumes of the treated and control groups, respectively, on a given day.
TGI was calculated for each group using the formula: TGI (%)=[1−(Ti−T0)/(Vi−V0)]×100; Ti is the average tumor volume of a treatment group on a given day, T0 is the average tumor volume of the treatment group on the day of treatment start, Vi is the average tumor volume of the vehicle control group on the same day with Ti, and V0 is the average tumor volume of the vehicle group on the day of treatment start.
Tumor growth inhibition rate for test articles in the PC-3 xenograft model was calculated based on tumor volume measurements at day 20 after the start of the treatment.

[2] = tested on: CTG-2540; assay: Champions TumorGraft NSCLC PDX efficacy, model CTG-2540; type: in vivo, Mus musculus
Procedure: Mice were implanted subcutaneously into the left flank with tumor fragments from one of the various models. After tumors grew to an average of 150-300 mm^3, mice were treated by IV administration Q7Dx4 (n=2) with vehicle or 3 mg/kg of BT5528. Effects on tumor growth were evaluated by measuring percent tumor growth inhibition (% TGI), and the number of complete responders (CR), partial responders (PR), and tumor-free survivors (TFS). Tolerability was assessed by body weight loss, lethality, and clinical signs of adverse treatment-related side effects. Tumor volumes and body weights were measured twice a week.
Dosing solutions of BT5528 […] were pre-formulated. These dosing solutions were stored at −80° C. in the dark. On each day of dosing, a frozen aliquot of each test agent was thawed, stored at 2-8° C. and used for dosing.
The animals used in this study are described below: • Species: Mus musculus • Strain: Athymic Nude-Foxn1^nu (immune-compromised) • Source: Envigo (Indianapolis, Ind., USA) • Number of animals per group: 2 • Age and sex: At least 6-8 weeks of age at start of dosing, female • Weight: At least 18 grams at start of dosing • Acclimation period: 3 days
Stock mice were implanted with tumor cells from Champions TumorGraft® models CTG-0160, CTG-0170, CTG-0178, CTG-0192, CTG-0363, CTG-0808, CTG-0838, CTG-0848, CTG-1212, CTG-1502, CTG-1535, CTG-2011, CTG-2393, CTG-2539 or CTG-2540. After the tumors reached 1000-1500 mm^3, they were harvested and the tumor fragments (approximately 5×5×5 mm^3) were implanted SC in the left flank of the female study mice. Each animal was implanted with a specific passage lot and documented. Tumor growth was monitored twice a week using digital calipers and the tumor volume (TV) was calculated using the formula (0.52×[length×width^2]). When the TV reached an average volume of 150-300 mm^3, animals were matched by tumor size and assigned into Vehicle Control and treatment groups (n=2/group) and dosing was initiated on Day 0. After the initiation of dosing on Day 0, animals were weighed twice per week using a digital scale and TV was measured twice per week and also on the final day of study. The study was completed when the mean tumor volume of Vehicle Control reached 1500 mm^3 or up to Day 60, whichever occurred first.
Beginning on Day 0, animals were observed daily and weighed twice weekly using a digital scale; data including individual and mean gram weights, mean percent weight change versus Day 0 (% vD0) were recorded for each group and % vD0 plotted at study completion. […] Treatment resulting in a mean % vD0>20% and/or >10% mortality was considered above the maximum tolerated dose. Maximum mean % vD0 (weight nadir) for each treatment group was reported at study completion.
Inhibition of tumor growth was determined by calculating the percent TGI (100%×[1−(final MTV−initial MTV of a treated group)/(final MTV−initial MTV of the control group)]). Treatment started on Day 0.
Additional endpoints used to evaluate efficacy were: the number of complete responders (CR), partial responders (PR), and tumor-free survivors (TFS). PRs were considered exclusive of CRs, as were TFS.
Statistical analyses of anti-tumor efficacy were performed using one-way ANOVA followed by Dunnett's multiple comparisons test (GraphPad Prism version 8.2.0). Significant p-values=<0.05.
Animals were dosed according to the schedule on Table 7-1. The study was terminated on Day 28.

[3] = CTG-2540, 3 mg/kg IV Q7Dx4, Day 0-28

`CC[C@H](C)[C@@H]([C@@H](CC(=O)N1CCC[C@H]1[C@H](OC)[C@@H](C)C(=O)N[C@H](C)[C@@H](O)c1ccccc1)OC)N(C)C(=O)[C@@H](NC(=O)[C@H](C(C)C)N(C)C(=O)OCc1ccc(NC(=O)[C@H](CCCNC(N)=O)NC(=O)[C@@H](NC(=O)CCCC(=O)ON2C(=O)CCC2=O)C(C)C)cc1)C(C)C` [BT5528] (X1-V[Cit][PABC][NMeV]V[Dil][Dolaproine]-X2) was tested, and the “tumor relapse after ceasing the treatment” value (from here on “tumor relapse”) ([1]; 0.5 mg/kg qw or 0.5 mg/kg q2w) was “obvious tumor relapse after ceasing the treatment”, the “tumor relapse” value ([1]; 1.5 mg/kg q2w) was “tumor relapse after ceasing the treatment” and the “tumor relapse” value ([1]; 1.5 mg/kg qw) was “didn't show any tumor relapse until day 48”. The “further treatment after relapse” value ([1]; 1.5 mg/kg qw from day 52 in mice first treated with 0.5 mg/kg qw or q2w) was “worked well on the tumor regression”, the “further dosing after relapse” value ([1]; 1.5 mg/kg qw from day 52 in mice first treated with 1.5 mg/kg q2w) was “didn't work on complete tumor regression” and the T/C ([1]; 0.167 mpk i.v. qw, day 20) was 50.2%. For the same compound, the TGI ([1]; 0.167 mpk i.v. qw, day 20) was 61.4%, the Tumor volume ([1]; 0.167 mpk i.v. qw, day 20) was 1188 mm^3 and the T/C ([1]; 0.5 mpk i.v. q2w, day 20) was 22.4%. For the same compound, the TGI ([1]; 0.5 mpk i.v. q2w, day 20) was 96.0%, the Tumor volume ([1]; 0.5 mpk i.v. q2w, day 20) was 530 mm^3 and the Tumor volume ([1]; 0.5 mpk i.v. qw, day 0) was 451 mm^3. It also gave a Tumor volume ([1]; 0.5 mpk i.v. qw, day 2) of 622 mm^3, a Tumor volume ([1]; 0.5 mpk i.v. qw, day 4) of 519 mm^3 and a Tumor volume ([1]; 0.5 mpk i.v. qw, day 6) of 460 mm^3. The Tumor volume ([1]; 0.5 mpk i.v. qw, day 8) was 398 mm^3, the Tumor volume ([1]; 0.5 mpk i.v. qw, day 10) was 329 mm^3 and the Tumor volume ([1]; 0.5 mpk i.v. qw, day 13) was 260 mm^3. It also gave a Tumor volume ([1]; 0.5 mpk i.v. qw, day 15) of 249 mm^3, a Tumor volume ([1]; 0.5 mpk i.v. qw, day 17) of 231 mm^3 and a T/C ([1]; 0.5 mpk i.v. qw, day 20) of 9.9%. For the same compound, the TGI ([1]; 0.5 mpk i.v. qw, day 20) was 111.4%, the Tumor volume ([1]; 0.5 mpk i.v. qw, day 20) was 234 mm^3 and the T/C ([1]; 1.5 mpk i.v. q2w, day 20) was 5.4%. For the same compound, the TGI ([1]; 1.5 mpk i.v. q2w, day 20) was 117.0%, the Tumor volume ([1]; 1.5 mpk i.v. q2w, day 20) was 128 mm^3 and the Tumor volume ([1]; 1.5 mpk i.v. qw, day 0) was 458 mm^3. For the same compound, the Tumor volume ([1]; 1.5 mpk i.v. qw, day 2) was 587 mm^3, the Tumor volume ([1]; 1.5 mpk i.v. qw, day 4) was 494 mm^3 and the Tumor volume ([1]; 1.5 mpk i.v. qw, day 6) was 363 mm^3. For the same compound, the Tumor volume ([1]; 1.5 mpk i.v. qw, day 8) was 283 mm^3, the Tumor volume ([1]; 1.5 mpk i.v. qw, day 10) was 237 mm^3 and the Tumor volume ([1]; 1.5 mpk i.v. qw, day 17) was 155 mm^3. It also gave a T/C ([1]; 1.5 mpk i.v. qw, day 20) of 5.5%, a TGI ([1]; 1.5 mpk i.v. qw, day 20) of 117.2% and a Tumor volume ([1]; 1.5 mpk i.v. qw, day 20) of 131 mm^3. For the same compound, the “treatment of relapsed Docetaxel-pretreated mice” value ([1]; BT5528 1.5 mg/kg qw from day 42) was “worked well on tumor regression”, the “measurable tumor regression by day after dosing” value ([1]; PC-3 xenograft) was ≤ 4 days and the “efficacy with intermittent dosing” value ([1]; dosing every 2 weeks) was “efficacious with intermittent dosing”. For the same compound, the “mean body weight loss” value ([2]; 3 mg/kg IV Q7Dx4) was “no mean body weight loss”, the “MTV (mean tumor volume)” value ([2]; 3 mg/kg IV Q7Dx4, Day 28) was 692±156 mm^3 and the TGI ([2]; 3 mg/kg IV Q7Dx4, Day 28) was 75%. For the same compound, the “# CR (complete responders)” value [2, 3] was 0/0/0, the “# PR (partial responders)” value [2, 3] was 0/0/0 and the “# TFS (tumor-free survivors)” value [2, 3] was 0/0/0. The “% TGI” value ([2]; CTG-2540, 3 mg/kg IV Q7Dx4, Day 28) was 75% and the “Day 28 Tumor Volume Mean TV ± SEM” value ([2]; CTG-2540, BT5528 3 mg/kg IV Q7Dx4, Day 28, n=2) was 692 ± 156 mm^3.
